Holding throughout (assay): NCI anticancer screen, dose series, 48 h
Assay [1] concerns T-47D breast.
For assay [2], the system named is DU-145 prostate.
Assay [3] has as its system HCT-15 colon.
The test system of assay [4] is HL-60(TB) leukemia.
The subject of assay [5] is HT29 colon.
For assay [6], the system named is NCI/ADR-RES ovarian.
Assay [7] concerns OVCAR-3 ovarian.
Assay [8] concerns BT-549 breast.
The subject of assay [9] is U251 CNS.
Assay [10] concerns HOP-62 NSCLC.

Values joined by “and” are separate entries in the source; they are usually repeats but may differ in a detail not shown here. Identical values can stand only once.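 All cell lines were grown in 96-well plates and treated with compound for 48 hours. At the GI50, growth is halved. TGI: total growth inhibition.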 A value given as a limit tells only on which side of the number the result lay.

In the case of `NC(=S)N/N=C/C(=O)O`, the GI50 is 21.3 µM in [1]; more than 100 µM in assay [2]; more than 100 µM in assay [3]; more than 100 µM in assay [4]; more than 100 µM in assay [5]; 96.3 µM in assay [6]. In addition, the GI50 is 31.7 µM in assay [7], more than 100 µM in [8], more than 100 µM in [9] and more than 100 µM in assay [10]. The TGI in [1], in assay [2], in assay [3], in [4], in assay [5] and in assay [6] was more than 100 µM each time. Besides, the TGI in assay [7], in assay [8], in [9] and in assay [10] was more than 100 µM each time.

On to `O=C(Nc1ccc(Br)cc1F)c1cc(F)ccc1O`, for which the GI50 in [1] is 0.511 µM; in assay [2] it was 0.698 µM; in assay [3] it was 0.773 µM; in assay [4], 0.485 µM; in assay [5], 3.19 µM; in assay [6], 0.533 µM. For the same molecule, the GI50 in assay [7] was 0.411 µM; in assay [8] it was 0.356 µM; in [9] it was 0.609 µM; in assay [10], 1.56 µM. Moreover, the TGI in assay [1] is 5.59 µM; in assay [2], 64.6 µM; in [3], 7.34 µM; in assay [4] it was 2.89 µM; in [5] it was more than 36.7 µM; in [6], 5.4 µM. The TGI in assay [7] was 6.64 µM; in [8], 1.4 µM; in assay [9], more than 100 µM; in assay [10], 7.82 µM.

For `Cc1ccc(SC2c3ccc(C)cc3Oc3nc(N)c(C#N)c(N)c32)cc1` (centres undefined), the GI50 in assay [1] is 1.8 µM; in assay [2], 1.86 µM; in assay [3], 1.72 µM; in assay [4], 2.09 µM; in assay [5], 2 µM; in assay [6], 2.79 µM. Also, the GI50 was 1.77 µM in assay [7], 1.63 µM in [8], 1.69 µM in [9] and 1.79 µM in assay [10]. Besides, the TGI was determined as 5.01 µM in assay [1]; 3.36 µM in assay [2]; 3.23 µM in assay [3]; 5.49 µM in assay [4]; 3.9 µM in assay [5]; 9.73 µM in [6]. The TGI in assay [7] worked out at 3.22 µM; in assay [8], 3.25 µM; in [9], 3.08 µM; in assay [10], 3.4 µM.

As to `N#Cc1c(N)nc(N2CCOCC2)c(C#N)c1-c1ccncc1`, the GI50 is 12.6 µM in assay [1]; more than 100 µM in assay [2]; more than 100 µM in assay [3]; 62.9 µM in assay [4]; more than 100 µM in [5]; more than 100 µM in assay [6]. The GI50 in assay [7] was 36.4 µM; in [8], 95.8 µM; in assay [9], more than 100 µM; in assay [10], 29.6 µM. The TGI in assay [1] is 51.7 µM; in assay [2], more than 100 µM; in assay [3], more than 100 µM; in assay [4], more than 100 µM; in assay [5], more than 100 µM; in [6], more than 100 µM. Moreover, the TGI in assay [7], in assay [8], in assay [9] and in [10] was more than 100 µM each time.

For the molecule `Nc1ccc([N+](=O)[O-])cc1N=C/C=C/c1ccccc1`, the GI50 is 15.7 µM in [1]; 13.9 µM in [2]; 13.5 µM in assay [3]; 2.64 µM in assay [4]; 5.05 µM in [5]; 7.84 µM in [6]. Also, the GI50 was 4.95 µM in assay [7], 12.5 µM in assay [8], 6.16 µM in assay [9] and 42.5 µM in [10]. For the same molecule, the TGI in assay [1] is 77.7 µM; in [2], 64.9 µM; in assay [3] it was more than 100 µM; in assay [4] it was more than 100 µM; in assay [5], 67.1 µM; in assay [6] it was more than 100 µM. In addition, the TGI in assay [7] is 26.8 µM; in assay [8] it was more than 100 µM; in [9], 77.5 µM; in assay [10] it was more than 100 µM.

For the molecule `Cn1c(I)c(C#CCO[Si](C)(C)C(C)(C)C)c(=O)[nH]c1=O`, the GI50 is 2.92 µM in assay [1]; 15.3 µM in assay [2]; 13.5 µM in [3]; 2.43 µM in assay [4]; 20.9 µM in assay [5]; 19.2 µM in [6]. Besides, the GI50 in assay [7] was 6.49 µM; in assay [8], 16.4 µM; in assay [9], 17.4 µM; in assay [10], more than 44.1 µM. Besides, the TGI in assay [1] worked out at 15 µM; in assay [2], 28.6 µM; in assay [3], 27.6 µM; in [4] it was 4.83 µM; in assay [5] it was 39.7 µM; in assay [6] it was 38.1 µM. Moreover, the TGI in assay [7] was 16.2 µM; in assay [8] it was 30.3 µM; in assay [9], 31.9 µM; in [10], more than 59 µM.

`COC(=O)c1ccc2c(c1)nc(NC(=O)c1ccccc1)n2CCCc1ccccc1`: the GI50 is 4.35 µM in assay [1]; 11.5 µM in [2]; 1.89 µM in assay [3]; 4.5 µM in [4]; 6.92 µM in assay [5]; 4.1 µM in assay [6]. Also, the GI50 was 7.29 µM in [7], 3.33 µM in assay [8], 2.73 µM in [9] and 5.03 µM in assay [10]. The TGI in assay [1], in assay [2], in [3], in [4], in assay [5] and in assay [6] was more than 100 µM in each case. Moreover, the TGI in assay [7], in assay [8], in assay [9] and in assay [10] was more than 100 µM throughout.

With `C[N+](C)(C)CC1CCCc2ccccc2C1=O` (centres undefined), the GI50 is 19.1 µM in [1]; 2.75 µM in [3]; 1.16 µM in [4]; 7.65 µM in assay [5]; 22.4 µM in assay [6]. Also, the TGI in assay [2] was more than 56.3 µM; in assay [3], 8.43 µM; in [4] it was 5.13 µM and 3.01 µM; in assay [5] it was 30.7 µM; in assay [6], 54 µM; in assay [7] it was 17.7 µM. The results for the TGI in [8], in assay [9] and in [10] were 33.4 µM, 12.4 µM and 34.3 µM, respectively.

As for `Cn1cc(C2=C(c3ccc(N)cc3)C(=O)NC2=O)c2ccccc21`, the GI50 was more than 24 µM in [1]; more than 25 µM in assay [2]; 11.5 µM in assay [3]; 8.58 µM in assay [4]; 12.5 µM in assay [5]; 21.8 µM in assay [6]. Also, the GI50 is 14.3 µM in assay [7], 11.4 µM in [8], 11.4 µM in [9] and more than 25 µM in assay [10]. In addition, the TGI in assay [1], in [2], in [3], in assay [4], in assay [5] and in [6] was more than 25 µM in each case. For the same molecule, the TGI in assay [7], in assay [8], in assay [9] and in assay [10] was more than 25 µM throughout.

On to `CCOC(=O)c1ccc(NC(=O)Oc2ccc3c(C)cc(=O)oc3c2)cc1`, for which the TGI in assay [1] was 78 µM; in [2], more than 100 µM; in assay [3], more than 100 µM; in assay [4], 62.2 µM; in assay [5], more than 100 µM; in assay [6], more than 100 µM. For the same molecule, the TGI in assay [7] was more than 100 µM; in assay [8] it was 89.5 µM; in assay [9] it was more than 100 µM; in assay [10], 98.6 µM.

Regarding `Cc1cc(C)c2c(n1)sc1c(Nc3ccc(Cl)cc3)ncnc12`, the GI50 in assay [1] is 0.0299 µM; in [2], less than 0.01 µM; in [3], less than 0.01 µM; in assay [4], less than 0.01 µM; in assay [5], less than 0.0152 µM; in assay [6], less than 0.01 µM. Also, the GI50 in assay [7] was 2.39 µM; in assay [8] it was less than 0.0161 µM; in assay [9], less than 0.01 µM; in assay [10], less than 0.01 µM. The TGI in assay [1], in [2], in assay [3], in assay [5], in assay [6] and in assay [7] was more than 100 µM throughout. Also, the TGI in [8] and in assay [9] was more than 100 µM in each case.

Take `CSc1nc(=O)n(CCC#N)nc1SC`: the TGI in [1] was 62.7 µM; in [2], more than 100 µM; in [3], more than 100 µM; in [4] it was 30.7 µM; in [5], more than 100 µM; in [6], more than 100 µM. In addition, the TGI in assay [7] was 32 µM; in assay [8], 55.1 µM; in assay [9], more than 100 µM; in assay [10], more than 100 µM.

Turning to `CN(C)CCNC(=O)c1cccc2ccc(-c3ccc(O)cc3)nc12`, the TGI in assay [1] was 6.98 µM; in [2], 10.6 µM; in assay [3], 14.4 µM; in [4], 3.36 µM; in assay [5], 14.5 µM and 17.2 µM; in assay [6], 23.7 µM and 26.3 µM. For the same molecule, the TGI is 15.2 µM and 15.9 µM in assay [7]; 19.5 µM in [8]; 10.4 µM in assay [9]; 7.2 µM and 4.47 µM in assay [10]. The GI50 in [6] was 6.8 µM; in assay [10], 1.11 µM.

As for `COc1cccc(C2CC(C)(O)Oc3cc4c(cc32)OCO4)c1O` (centres undefined), the TGI in assay [1] is more than 100 µM; in assay [2], 73.2 µM; in assay [3], more than 72.5 µM; in assay [4] it was more than 59 µM; in assay [5], 50.6 µM; in [6], 59.3 µM. For the same molecule, the TGI in assay [7] is 42.2 µM; in [8] it was 62.4 µM; in [9] it was 70.4 µM; in assay [10], 79.7 µM.

These data come from PubChem BioAssay (NCI).
